In the NIST ThermoML archive (doi:10.1021/je100581m):

Test: xn = mol fraction of the nth substance listed
Details: Liquid, Vibrating tube method

C=CC(C)(O)CCC=C(C)C (stereo not given) [3,7-dimethyl-1,6-octadien-3-ol] + CC(C)O
mass density [kg/m3]
Details | x2 = 0 | x2 = 0.1031 | x2 = 0.2049 | x2 = 0.3054 | x2 = 0.4056 | x2 = 0.5022 | x2 = 0.605 | x2 = 0.7008 | x2 = 0.7981 | x2 = 0.9092
283.15 K, 100 kPa | 869.5 | 866.3 | 862.7 | – | 854.1 | 848.8 | 842.3 | 834.6 | – | 809.3
283.15 K, 5000 kPa | 872.6 | 869.5 | – | 861.9 | 857.4 | 852.2 | 845.7 | – | 828.2 | 813.1
283.15 K, 10000 kPa | 875.7 | – | 869 | 864.9 | 860.5 | 855.3 | – | 841.4 | 831.6 | 816.6
283.15 K, 15000 kPa | – | 875.5 | 872.1 | 868.1 | 863.7 | – | 852.2 | 844.9 | 835.1 | 820.4
283.15 K, 20000 kPa | 881.5 | 878.5 | 875 | 870.9 | – | 861.6 | 855.3 | 848 | 838.4 | –
283.18 K, 100 kPa | – | – | – | 858.7 | – | – | – | – | 824.5 | –
283.18 K, 5000 kPa | – | – | 865.9 | – | – | – | – | 838.1 | – | –
283.18 K, 10000 kPa | – | 872.5 | – | – | – | – | 848.9 | – | – | –
283.18 K, 15000 kPa | 878.7 | – | – | – | – | 858.6 | – | – | – | –
283.18 K, 20000 kPa | – | – | – | – | 866.7 | – | – | – | – | 823.7
298.15 K, 100 kPa | 857.3 | 854.1 | 850.5 | 846.3 | 841.7 | 836.4 | 829.7 | 821.9 | 812 | 796.8
298.15 K, 5000 kPa | 860.6 | 857.4 | 853.9 | 849.8 | 845.2 | 839.9 | 833.3 | 825.6 | 815.9 | 800.9
298.15 K, 10000 kPa | 863.9 | 860.8 | 857.3 | 853.2 | 848.7 | 843.5 | 837 | 829.4 | 819.7 | 804.9
298.15 K, 15000 kPa | 867 | 864 | 860.5 | 856.5 | 852 | 846.9 | 840.4 | 832.9 | 823.4 | 808.8
298.15 K, 20000 kPa | 870 | 867 | 863.6 | 859.6 | 855.2 | 850.1 | 843.7 | 836.4 | 826.9 | 812.4
313.15 K, 100 kPa | 844.5 | 841.4 | 837.7 | 833.4 | 828.7 | 823.2 | 816.4 | 808.5 | 798.6 | 783.6
313.15 K, 5000 kPa | 848.2 | 845.1 | 841.5 | 837.3 | 832.6 | 827.2 | 820.6 | 812.8 | 803 | 788.2
313.15 K, 10000 kPa | 851.6 | 848.6 | 845.1 | 840.9 | 836.3 | 831 | 824.4 | 816.8 | 807.1 | 792.5
313.15 K, 15000 kPa | 855 | 852.1 | 848.6 | 844.5 | 840 | 834.8 | 828.2 | 820.6 | 811.1 | 796.7
313.15 K, 20000 kPa | 858.4 | 855.4 | 852 | 847.9 | 843.5 | 838.3 | 831.8 | 824.4 | 814.9 | 800.7
328.15 K, 100 kPa | 831.7 | 828.5 | – | 820.4 | 815.5 | 809.9 | 802.8 | – | 784.8 | 769.8
328.15 K, 5000 kPa | 835.6 | – | 828.8 | 824.5 | 819.7 | 814.2 | – | 799.4 | 789.5 | 774.8
328.15 K, 10000 kPa | – | 836.4 | 832.8 | 828.6 | 823.9 | – | 811.6 | 803.9 | 794.2 | 779.7
328.15 K, 15000 kPa | 843.1 | 840.1 | 836.5 | 832.3 | – | 822.3 | 815.6 | 808 | 798.4 | –
328.15 K, 20000 kPa | 846.7 | 843.6 | 840.2 | – | 831.5 | 826.1 | 819.5 | 812 | – | 788.4
328.18 K, 100 kPa | – | – | 824.8 | – | – | – | – | 794.9 | – | –
328.18 K, 5000 kPa | – | 832.5 | – | – | – | – | 807.2 | – | – | –
328.18 K, 10000 kPa | 839.5 | – | – | – | – | 818.4 | – | – | – | –
328.18 K, 15000 kPa | – | – | – | – | 827.8 | – | – | – | – | 784.1
328.18 K, 20000 kPa | – | – | – | 836 | – | – | – | – | 802.6 | –
